Data reported in ChEMBL document CHEMBL1955760, “Pyrrolovesamicols--synthesis, structure and VAChT binding of two 4-fluorobenzoyl regioisomers” (Bioorg Med Chem Lett, 2012).

Assays:
[1] = target: T1, Vesicular acetylcholine transporter (Homo sapiens, UniProt Q16572); test: Binding affinity to VAchT
T1 sequence (Q16572 whole entry): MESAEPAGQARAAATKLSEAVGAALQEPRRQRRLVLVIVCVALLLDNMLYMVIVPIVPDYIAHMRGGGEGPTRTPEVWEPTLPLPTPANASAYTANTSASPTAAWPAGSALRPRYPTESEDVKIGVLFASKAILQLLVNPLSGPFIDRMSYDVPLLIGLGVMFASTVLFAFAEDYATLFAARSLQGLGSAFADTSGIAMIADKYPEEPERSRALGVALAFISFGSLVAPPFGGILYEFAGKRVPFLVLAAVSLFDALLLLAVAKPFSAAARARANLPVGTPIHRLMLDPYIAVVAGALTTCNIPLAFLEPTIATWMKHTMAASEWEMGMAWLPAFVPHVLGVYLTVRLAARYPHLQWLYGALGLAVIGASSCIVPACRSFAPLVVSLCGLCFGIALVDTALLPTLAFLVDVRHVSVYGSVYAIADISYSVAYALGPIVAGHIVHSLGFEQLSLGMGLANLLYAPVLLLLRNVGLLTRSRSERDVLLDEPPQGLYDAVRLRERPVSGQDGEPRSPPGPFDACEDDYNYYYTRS

[2] = target: T1, Vesicular acetylcholine transporter; test: Binding affinity to VAchT transfected in rat PC12 cells; assay type: cell-based, PC-12
[3] = target: T2, Vesicular acetylcholine transporter (Rattus norvegicus, UniProt Q62666); test: Displacement of (-)-[3H]vesamicol from rat VAchT transfected in rat PC12 cells after 2 hrs by scintillation counting; assay type: cell-based, PC-12
T2 sequence (Q62666 whole entry): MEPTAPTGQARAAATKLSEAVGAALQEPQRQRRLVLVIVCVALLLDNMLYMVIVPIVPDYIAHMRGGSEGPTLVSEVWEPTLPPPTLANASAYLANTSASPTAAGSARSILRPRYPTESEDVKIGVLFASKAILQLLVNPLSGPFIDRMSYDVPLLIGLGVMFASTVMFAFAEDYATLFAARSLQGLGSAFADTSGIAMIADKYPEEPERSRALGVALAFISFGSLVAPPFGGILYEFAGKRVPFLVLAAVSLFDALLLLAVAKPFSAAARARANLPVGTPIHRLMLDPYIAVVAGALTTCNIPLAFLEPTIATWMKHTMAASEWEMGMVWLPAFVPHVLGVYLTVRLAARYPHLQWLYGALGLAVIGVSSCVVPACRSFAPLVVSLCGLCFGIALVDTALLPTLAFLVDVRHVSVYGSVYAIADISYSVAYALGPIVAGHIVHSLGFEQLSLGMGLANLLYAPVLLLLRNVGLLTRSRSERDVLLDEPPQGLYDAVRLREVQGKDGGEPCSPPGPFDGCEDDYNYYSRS

| SMILES | Ki [3] [nM] | Ki [1] [nM] | other results |
| --- | --- | --- | --- |
| CCN(C(=O)C[18F])c1cccc2c1C[C@@H](N1CCC(c3ccccc3)CC1)[C@H](O)C2 | – | 0.32 | – |
| O=C(c1ccc([18F])cc1)N1CCOC2C[C@@H](O)[C@H](N3CCC(c4ccccc4)CC3)CC21 (mixture of isomers) | – | – | Ki [2]: 27.5 nM |
| O[C@@H]1CCN(Cc2ccc([18F])cc2)C[C@H]1N1CCC(c2ccccc2)CC1 (racemic) | – | 0.44 | – |

Further lines, with some results ahead:

| Ki [3] [nM] | SMILES | Ki [1] [nM] | other results |
| --- | --- | --- | --- |
| 312 | O=C(c1ccc(F)cc1)c1cc2c([nH]1)C[C@@H](N1CCC(c3ccccc3)CC1)[C@H](O)C2 (racemic) | – | – |
| 7320 | O=C(c1ccc(F)cc1)c1cc2c([nH]1)C[C@@H](O)[C@H](N1CCC(c3ccccc3)CC1)C2 (racemic) | – | – |
